Reference: patent US20100041089A1, “IMPROVED METHOD FOR DETECTING CHEMICAL […]” (priority 2006, published 2010)

Tested on: yeast genes (expressed mRNA)
Assay: DNA chip measurement of expressed mRNA of yeast genes after culture with a toxic chemical substance
Format: cell-based, Saccharomyces cerevisiae S288C
Settings: for level of expressed mRNA in the presence of chemical substance / level in the absence of chemical substance: cultured two hours with the chemical substance; for The level of expressed mRNA in the presence of chemical substance/The level of expressed mRNA in the absence of chemical substance: cultured two hours with substance
Experimental: Yeast (Saccharomyces cerevisiae S288C (a SUC2mal mel gap2 CUP1)) were cultured at 25° C. on YPD medium (yeast extract 1%, polypeptone 2%, glucose 2%). One of toxic chemical substances was added to the cell at logarithmic growth phase, and the cell was further cultured for two hours. Cell was cultured without any chemical substance in the same condition, and was used as a control. Concentrations of the chemical substances were defined to inhibit the growth of the yeast but not lead to death.
After the completion of cultivation, the culture was centrifuged to collect the cells. To the cells, sodium acetate buffer (50 mM sodium acetate, 10 mM EDTA, 1% SDS) was added, and the mixture was shaken at 65° C. for five minutes, followed by returning to room temperature, and obtaining the supernatant, which procedure was repeated two times. To the supernatant, ½ amount of a solution of phenol/chloroform (1:1) was added, and the mixture was centrifuged to give a supernatant, an equal amount of chloroform was added, and the mixture was centrifuged to give a supernatant. To the supernatant, an equal amount of isopropanol containing 0.3 M sodium acetate was added, and the mixture was allowed to stand at room temperature for 30 minutes, after which the mixture was centrifuged to give sediment of the whole RNAs. Seventy % ethanol was added to the sediment, and the mixture was again centrifuged to give sediment, which was then dried and dissolved in water. mRNA was isolated from the whole RNAs as followings. In view of the fact that a poly A chain is attached to the 3′ terminus of mRNA, a polynucleotide having a poly T structure which was immobilized on the surface of latex beads was used to trap the mRNA, and then the mRNA was washed and eluted with spine column (Oligotex-dT30<Super>mRNA Purification Kit, Takara). Reverse transcription of the mRNA was conducted with a reverse transcriptase (Super Script II Reverse Transcriptase; catalogue No. 18064-014, GibcoBRL) using fluorescence-labeled nucleotides to give cDNAs that were introduced with Cy3-dUTP or Cy5-dUTP during the reverse transcription.
The labeled cDNAs were dissolved in TE buffer (10 mM Tris-HCl/1 mM EDTA, pH 8.0), and the solution was dropped on the DNA chip containing the whole genes of yeast (DNA Chip Research Inc. Japan) so that the cDNAs were hybridized on the DNA chip at 65° C. for over 12 hours. The fluoresces intensity of the DNA chip was read with a scanner, and the ratio relative to the fluorescence intensity resulting from the absence of chemical substance was estimated as the following, which is shown in Tables 1 to 9.
In the Tables, “Intensity” indicated in the rightmost column is a value of the level of expressed mRNA of each gene in control cells as divided by the average level of the expressions of the whole genes. A gene of which mRNA level is lower in control, and is higher in cases of addition of chemical substance, is especially useful in the detection of toxic substances.
Here, when a ratio of an amount of mRNA expressed in the presence of the chemical substance to an amount of mRNA expressed in the absence of the chemical substance is two or more, then it is considered significant.

## CCCCCCCCCCCCc1ccc(S(=O)(=O)[O-])cc1.[Na+] [(17), Sodium dodecylbenzosulfonate]
Yeast gene YDR128W
  level of expressed mRNA in the presence of chemical substance / level in the absence of chemical substance: 0.9
Yeast gene YDR133C
  level of expressed mRNA in the presence of chemical substance / level in the absence of chemical substance: 0.6
Yeast gene YDR250C
  level of expressed mRNA in the presence of chemical substance / level in the absence of chemical substance: 0.9
Yeast gene YDR278C
  level of expressed mRNA in the presence of chemical substance / level in the absence of chemical substance: 0.7
Yeast gene YDR281C
  level of expressed mRNA in the presence of chemical substance / level in the absence of chemical substance: 1.5
Yeast gene YDR330W
  The level of expressed mRNA in the presence of chemical substance/The level of expressed mRNA in the absence of chemical substance: 1.5
Yeast gene YDR366C
  level of expressed mRNA in the presence of chemical substance / level in the absence of chemical substance: 1.2
Yeast gene YDR411C
  The level of expressed mRNA in the presence of chemical substance/The level of expressed mRNA in the absence of chemical substance: 1.5
Yeast gene YDR511W
  The level of expressed mRNA in the presence of chemical substance/The level of expressed mRNA in the absence of chemical substance: 1.3
Yeast gene YDR545W
  The level of expressed mRNA in the presence of chemical substance/The level of expressed mRNA in the absence of chemical substance: 0.9
Yeast gene YEL001C
  The level of expressed mRNA in the presence of chemical substance/The level of expressed mRNA in the absence of chemical substance: 0.7
Yeast gene YER004W
  The level of expressed mRNA in the presence of chemical substance/The level of expressed mRNA in the absence of chemical substance: 1.4
Yeast gene YER035W
  The level of expressed mRNA in the presence of chemical substance/The level of expressed mRNA in the absence of chemical substance: 2.2
Yeast gene YER079W
  The level of expressed mRNA in the presence of chemical substance/The level of expressed mRNA in the absence of chemical substance: 1.0
Yeast gene YER106W
  The level of expressed mRNA in the presence of chemical substance/The level of expressed mRNA in the absence of chemical substance: 0.8
Yeast gene YER158C
  The level of expressed mRNA in the presence of chemical substance/The level of expressed mRNA in the absence of chemical substance: 1.6
Yeast gene YER163C
  The level of expressed mRNA in the presence of chemical substance/The level of expressed mRNA in the absence of chemical substance: 1.2
Yeast gene YER175C
  The level of expressed mRNA in the presence of chemical substance/The level of expressed mRNA in the absence of chemical substance: 0.9
Yeast gene YFL006W
  The level of expressed mRNA in the presence of chemical substance/The level of expressed mRNA in the absence of chemical substance: 1.0
Yeast gene YFL010C
  The level of expressed mRNA in the presence of chemical substance/The level of expressed mRNA in the absence of chemical substance: 1.9
Yeast gene YFL024C
  The level of expressed mRNA in the presence of chemical substance/The level of expressed mRNA in the absence of chemical substance: 0.9
Yeast gene YFL032W
  The level of expressed mRNA in the presence of chemical substance/The level of expressed mRNA in the absence of chemical substance: 1.7
Yeast gene YFR026C
  level of expressed mRNA in the presence of chemical substance / level in the absence of chemical substance: 1.1
Yeast gene YGL037C
  The level of expressed mRNA in the presence of chemical substance/The level of expressed mRNA in the absence of chemical substance: 1.3
Yeast gene YGL047W
  The level of expressed mRNA in the presence of chemical substance/The level of expressed mRNA in the absence of chemical substance: 1.1
Yeast gene YGL053W
  The level of expressed mRNA in the presence of chemical substance/The level of expressed mRNA in the absence of chemical substance: 2.2
Yeast gene YGL088W
  level of expressed mRNA in the presence of chemical substance / level in the absence of chemical substance: 0.5
Yeast gene YGL121C
  The level of expressed mRNA in the presence of chemical substance/The level of expressed mRNA in the absence of chemical substance: 2.7
Yeast gene YGL199C
  The level of expressed mRNA in the presence of chemical substance/The level of expressed mRNA in the absence of chemical substance: 1.2
Yeast gene YGR038W
  level of expressed mRNA in the presence of chemical substance / level in the absence of chemical substance: 1.1
Yeast gene YGR101W
  The level of expressed mRNA in the presence of chemical substance/The level of expressed mRNA in the absence of chemical substance: 1.0
Yeast gene YGR110W
  The level of expressed mRNA in the presence of chemical substance/The level of expressed mRNA in the absence of chemical substance: 0.9
Yeast gene YGR130C
  The level of expressed mRNA in the presence of chemical substance/The level of expressed mRNA in the absence of chemical substance: 1.3
Yeast gene YGR139W
  level of expressed mRNA in the presence of chemical substance / level in the absence of chemical substance: 1.0
Yeast gene YGR154C
  The level of expressed mRNA in the presence of chemical substance/The level of expressed mRNA in the absence of chemical substance: 1.0
Yeast gene YGR221C
  The level of expressed mRNA in the presence of chemical substance/The level of expressed mRNA in the absence of chemical substance: 1.3
Yeast gene YGR243W
  level of expressed mRNA in the presence of chemical substance / level in the absence of chemical substance: 2.1
Yeast gene YGR293C
  level of expressed mRNA in the presence of chemical substance / level in the absence of chemical substance: 0.8
Yeast gene YHL006C
  level of expressed mRNA in the presence of chemical substance / level in the absence of chemical substance: 1.1
Yeast gene YHR095W
  level of expressed mRNA in the presence of chemical substance / level in the absence of chemical substance: 0.8
Yeast gene YHR105W
  level of expressed mRNA in the presence of chemical substance / level in the absence of chemical substance: 1.0
Yeast gene YHR138C
  The level of expressed mRNA in the presence of chemical substance/The level of expressed mRNA in the absence of chemical substance: 5.0
Yeast gene YHR181W
  level of expressed mRNA in the presence of chemical substance / level in the absence of chemical substance: 0.9
Yeast gene YHR199C
  The level of expressed mRNA in the presence of chemical substance/The level of expressed mRNA in the absence of chemical substance: 1.1
Yeast gene YIL023C
  The level of expressed mRNA in the presence of chemical substance/The level of expressed mRNA in the absence of chemical substance: 1.2
Yeast gene YIL041W
  The level of expressed mRNA in the presence of chemical substance/The level of expressed mRNA in the absence of chemical substance: 0.8
Yeast gene YIL087C
  The level of expressed mRNA in the presence of chemical substance/The level of expressed mRNA in the absence of chemical substance: 1.7
Yeast gene YIL127C
  level of expressed mRNA in the presence of chemical substance / level in the absence of chemical substance: 0.7
Yeast gene YJL017W
  level of expressed mRNA in the presence of chemical substance / level in the absence of chemical substance: 1.0
Yeast gene YJL037W
  level of expressed mRNA in the presence of chemical substance / level in the absence of chemical substance: 1.3
Yeast gene YJL057C
  The level of expressed mRNA in the presence of chemical substance/The level of expressed mRNA in the absence of chemical substance: 1.4
Yeast gene YJL066C
  The level of expressed mRNA in the presence of chemical substance/The level of expressed mRNA in the absence of chemical substance: 1.4
Yeast gene YJL082W
  The level of expressed mRNA in the presence of chemical substance/The level of expressed mRNA in the absence of chemical substance: 0.6
